In ChEMBL document CHEMBL1201862, “PubChem BioAssay data set” (2004):
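Tested at 5 concentrations; 48 h exposure; 96-well plates; endpoints linearly interpolated, else capped at highest concentration. At the GI50, growth is halved.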 The source made the active and inactive calls. No stated cut-off is given here; in the data, active = GI50 up to about 1.1 µM and inactive = higher.

What was measured:
Test in all cases: inhibition of tumour cell growth, NCI panel, 48 h
ACHN = system: ACHN
CCRF-CEM = system: CCRF-CEM
HCC 2998 = system: HCC 2998
IGROV-1 = system: IGROV-1
K562 = system: K562
LOX IMVI = system: LOX IMVI
MCF7 = system: MCF7
MDA-MB-231 = system: MDA-MB-231
MDA-MB-435 = system: MDA-MB-435
NCI-H522 = system: NCI-H522
OVCAR-3 = system: OVCAR-3
SF-268 = system: SF-268
SF-295 = system: SF-295
SK-MEL-2 = system: SK-MEL-2
SR = system: SR
SW-620 = system: SW-620
T47D = system: T47D
TK-10 = system: TK-10
UACC-62 = system: UACC-62
UO-31 = system: UO-31

Measured: GI50

C=CC(C)(C)c1c(OC)oc2ccc(OC)c(C)c2c1=O
inactive: ACHN > 100 µM | CCRF-CEM > 100 µM | HCC 2998 > 100 µM | IGROV-1 > 100 µM | K562 78.2 µM | LOX IMVI > 100 µM | MCF7 > 100 µM | MDA-MB-231 > 100 µM | MDA-MB-435 > 100 µM | NCI-H522 98.2 µM | OVCAR-3 > 100 µM | SF-268 > 100 µM | SF-295 > 100 µM | SK-MEL-2 > 100 µM | SR 84.1 µM | SW-620 > 100 µM | T47D 56.4 µM | TK-10 > 100 µM | UACC-62 > 100 µM | UO-31 > 100 µM

O=C(O)c1cnccc1-c1cc(=O)[nH]n1-c1ccccc1
inactive: ACHN 35.8 µM | CCRF-CEM 34.4 µM | HCC 2998 25 µM | IGROV-1 > 21.3 µM | K562 10 µM | LOX IMVI 6.76 µM | MCF7 43.2 µM | MDA-MB-231 > 100 µM | MDA-MB-435 46 µM | NCI-H522 > 63.4 µM | OVCAR-3 > 43.9 µM | SF-268 > 83.2 µM | SF-295 21.6 µM | SK-MEL-2 > 63.2 µM | SR 11.3 µM | SW-620 > 23.2 µM | T47D 23.5 µM | TK-10 > 100 µM | UACC-62 17.4 µM | UO-31 27.9 µM

CCS(=O)(=O)c1c2cc(OC)ccc2nc2ccc(OC)cc12
inactive: ACHN > 100 µM | CCRF-CEM > 100 µM | HCC 2998 > 100 µM | IGROV-1 > 100 µM | K562 > 100 µM | LOX IMVI > 100 µM | MCF7 > 100 µM | MDA-MB-231 > 100 µM | MDA-MB-435 > 100 µM | NCI-H522 > 100 µM | OVCAR-3 > 100 µM | SF-268 > 100 µM | SF-295 > 100 µM | SK-MEL-2 > 100 µM | SR > 100 µM | SW-620 > 100 µM | T47D > 100 µM | TK-10 > 100 µM | UACC-62 > 100 µM | UO-31 > 100 µM

CN(C)CCNc1ccc(C(=O)NCCCN(C)CCCNC(=O)c2ccc(NCCN(C)C)c3c(=O)c4ccccc4[nH]c23)c2[nH]c3ccccc3c(=O)c12
inactive: UO-31 1.27 µM
active: ACHN 0.0402 µM | CCRF-CEM < 0.01 µM | HCC 2998 0.0246 µM | IGROV-1 < 0.01 µM | K562 0.0332 µM | LOX IMVI < 0.01 µM | MCF7 < 0.01 µM | MDA-MB-231 0.024 µM | MDA-MB-435 0.032 µM | NCI-H522 < 0.01 µM | OVCAR-3 0.469 µM | SF-268 < 0.01 µM | SF-295 0.0328 µM | SK-MEL-2 0.0489 µM | SR < 0.01 µM | SW-620 < 0.0113 µM | T47D 0.119 µM | TK-10 0.828 µM | UACC-62 0.0349 µM

CCOC(=O)C(Cc1ccc(OC(=O)OC(C)(C)C)cc1)NC(=O)OC(C)(C)C (stereo not given)
inactive: ACHN 74.1 µM | CCRF-CEM 21.9 µM | HCC 2998 30.3 µM | IGROV-1 50.1 µM | K562 76.4 µM | LOX IMVI 44.1 µM | MCF7 > 100 µM | MDA-MB-231 41.6 µM | MDA-MB-435 38.2 µM | NCI-H522 > 100 µM | OVCAR-3 40.6 µM | SF-268 65.2 µM | SF-295 > 100 µM | SK-MEL-2 > 100 µM | SR 26.4 µM | SW-620 34.7 µM | T47D 29 µM | TK-10 71.1 µM | UACC-62 > 100 µM | UO-31 54.3 µM

CC1=CC(=O)/C(=C/NC(=S)C(N)=S)C(=O)O1
inactive: ACHN > 100 µM | CCRF-CEM 44 µM | HCC 2998 > 100 µM | IGROV-1 > 100 µM | K562 > 100 µM | LOX IMVI > 100 µM | MCF7 > 100 µM | MDA-MB-231 > 100 µM | MDA-MB-435 > 100 µM | NCI-H522 > 100 µM | OVCAR-3 > 100 µM | SF-268 > 100 µM | SF-295 > 100 µM | SK-MEL-2 > 100 µM | SR 47.2 µM | SW-620 > 100 µM | T47D > 100 µM | TK-10 > 100 µM | UACC-62 > 100 µM | UO-31 > 100 µM

C/C(=C\COP(=O)(O)OP(=O)(O)O)CC/C=C(\C)CNc1c(F)c(F)c(F)c(F)c1F
inactive: ACHN > 100 µM | HCC 2998 > 100 µM | IGROV-1 > 86.3 µM | K562 > 100 µM | LOX IMVI > 100 µM | MCF7 > 100 µM | MDA-MB-231 5.43 µM | MDA-MB-435 > 100 µM | NCI-H522 > 100 µM | OVCAR-3 > 100 µM | SF-268 > 100 µM | SF-295 > 52.8 µM | SK-MEL-2 > 100 µM | SW-620 > 84.7 µM | T47D > 100 µM | TK-10 > 51.1 µM | UACC-62 > 51.9 µM | UO-31 > 100 µM
active: CCRF-CEM 0.126 µM | SR 0.0695 µM

c1cc2ccc3cc4ncccc4c4ccc(c1)c2c34
inactive: ACHN 6.87 µM | CCRF-CEM 19.7 µM | HCC 2998 25.6 µM | IGROV-1 1.32 µM | K562 59.4 µM | LOX IMVI 12.1 µM | MDA-MB-231 20.8 µM | MDA-MB-435 40.4 µM | NCI-H522 16.7 µM | OVCAR-3 82.2 µM | SF-268 30.7 µM | SF-295 17.1 µM | SK-MEL-2 16.6 µM | SW-620 17.5 µM | T47D 3.36 µM | TK-10 22.8 µM | UACC-62 20.6 µM | UO-31 5.43 µM
active: MCF7 0.338 µM | SR < 0.01 µM

NC(=O)c1cccc(/N=c2\oc3ccc(Br)cc3cc2-c2nc3ccccc3[nH]2)c1
inactive: ACHN 17.3 µM | CCRF-CEM 2.61 µM | HCC 2998 15.3 µM | IGROV-1 17.9 µM | K562 18.8 µM | LOX IMVI 16.1 µM | MCF7 12.9 µM | MDA-MB-231 7.55 µM | MDA-MB-435 15.1 µM | NCI-H522 22.1 µM | OVCAR-3 16.2 µM | SF-268 15.1 µM | SF-295 15.8 µM | SK-MEL-2 19.9 µM | SR 5.73 µM | SW-620 15.3 µM | T47D 10 µM | TK-10 17 µM | UACC-62 14.4 µM | UO-31 7.76 µM

O=C1CC(NCc2ccccc2)c2c(Cl)sc(Cl)c21 (stereo not given)
inactive: ACHN 22.3 µM | CCRF-CEM 2.54 µM | HCC 2998 17.4 µM | IGROV-1 26.1 µM | K562 16.6 µM | LOX IMVI 5.05 µM | MCF7 14 µM | MDA-MB-231 27.1 µM | MDA-MB-435 24.7 µM | NCI-H522 6.05 µM | OVCAR-3 20 µM | SF-268 16.3 µM | SF-295 38.7 µM | SK-MEL-2 19.5 µM | SR 3.2 µM | SW-620 17.7 µM | T47D 73.1 µM | TK-10 31.3 µM | UACC-62 5.01 µM | UO-31 31.4 µM

Cc1nc(O)nc2nc3ccc(Cl)cc3c(N(CCO)CCO)c12
inactive: ACHN > 100 µM | CCRF-CEM > 100 µM | HCC 2998 > 100 µM | IGROV-1 > 100 µM | K562 85.7 µM | LOX IMVI > 100 µM | MCF7 > 100 µM | MDA-MB-231 39 µM | MDA-MB-435 > 100 µM | NCI-H522 24 µM | OVCAR-3 > 100 µM | SF-268 > 100 µM | SF-295 > 100 µM | SK-MEL-2 > 100 µM | SR > 100 µM | SW-620 > 100 µM | T47D > 100 µM | TK-10 > 100 µM | UACC-62 > 100 µM | UO-31 73.6 µM

COC(=O)c1cc(/C=C\c2cc(OC)ccc2OC)ccc1OC
inactive: ACHN 32.1 µM | CCRF-CEM 55.1 µM | HCC 2998 22.4 µM | IGROV-1 13.7 µM | K562 6.5 µM | LOX IMVI 24 µM | MCF7 25.6 µM | MDA-MB-231 34.4 µM | MDA-MB-435 8.81 µM | NCI-H522 19.9 µM | OVCAR-3 24.4 µM | SF-268 32.7 µM | SF-295 30.8 µM | SK-MEL-2 24.9 µM | SR 10.4 µM | SW-620 38.9 µM | T47D 18.7 µM | TK-10 50.8 µM | UACC-62 22.6 µM | UO-31 30.3 µM
